The values that follow come from ChEMBL document CHEMBL1201862, “PubChem BioAssay data set” (2004).

Test systems include SNB-75; NCI-H226; SN12C; MDA-N; U-251; T47D; PC-3; HT-29; OVCAR-5; NCI-H522; MOLT-4; RPMI-8226; SK-MEL-2; 786-0; UACC-62; BT-549; OVCAR-8; ACHN; CAKI-1.
Common to all, as to experiment: NCI tumour cell line growth inhibition, 48 h

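Step 1: Grow cells in 96-well plates. Step 2: Expose to compound for 48 hours at 5 concentrations. Step 3: Interpolate endpoints linearly; if unreached, use highest concentration. Here, GI50 denotes the concentration required for 50% inhibition of growth.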 Activity calls are given as the source filed them. Rule as the data show it: active = GI50 up to about 1.1 µM and inactive = higher.

For the molecule `O=C1/C(=C/c2ccc([N+](=O)[O-])cc2)Sc2scc(-c3cccc([N+](=O)[O-])c3)[n+]21`, the GI50 was 10.6 µM (inactive) in the test with SNB-75; 11.5 µM (inactive) in the test with NCI-H226; 4.1 µM (inactive) in the test on SN12C; 4.35 µM (inactive) in the test with MDA-N; 10.7 µM (inactive) with U-251; 3.35 µM (inactive) with T47D. Besides, the GI50 in the test with PC-3 was 12.5 µM (inactive); in the test on HT-29, 2.31 µM (inactive); in the test with OVCAR-5, 8.89 µM (inactive); with NCI-H522, 0.973 µM (active); in the test on MOLT-4 it was 1.99 µM (inactive); in the test with RPMI-8226 it was 3.01 µM (inactive). The GI50 in the test with SK-MEL-2 was 13.9 µM (inactive); with 786-0, 1.79 µM (inactive); in the test on UACC-62, 8.79 µM (inactive); in the test on BT-549 it was 5.36 µM (inactive); in the test with OVCAR-8 it was 6.11 µM (inactive); in the test with ACHN, 3.97 µM (inactive). The GI50 with CAKI-1 is 2.8 µM (inactive).
With `CC(C)(C)C(=O)N(C(=S)OCc1ccccn1)c1ccccc1`, the GI50 is 67.8 µM (inactive) in the test on NCI-H226; 31.3 µM (inactive) with SN12C; 41.6 µM (inactive) in the test on MDA-N; 42 µM (inactive) in the test on U-251; 20 µM (inactive) in the test with T47D; 35.2 µM (inactive) with PC-3. The GI50 is 27.6 µM (inactive) with HT-29; 32.4 µM (inactive) in the test with OVCAR-5; 18.8 µM (inactive) in the test with MOLT-4; 12.2 µM (inactive) with RPMI-8226; 20.6 µM (inactive) in the test with SK-MEL-2; 35.8 µM (inactive) in the test on 786-0. Besides, the GI50 was 63 µM (inactive) in the test on UACC-62; 42.1 µM (inactive) in the test with BT-549; 31.6 µM (inactive) in the test on OVCAR-8; 38.5 µM (inactive) in the test on ACHN; 35.2 µM (inactive) in the test on CAKI-1.
`CCCCCCCCCc1c(O)c(O)c(CCCCCCCCC)c(CCCCCCCCC)c1CCCCCCCCC`: the GI50 with NCI-H226 is > 100 µM (inactive); with SN12C, > 100 µM (inactive); in the test with MDA-N, 50.6 µM (inactive); with U-251, > 100 µM (inactive); with T47D, > 100 µM (inactive); in the test with PC-3, > 100 µM (inactive). For the same molecule, the GI50 was > 100 µM (inactive) in the test with HT-29; > 100 µM (inactive) in the test on OVCAR-5; 30.2 µM (inactive) with NCI-H522; > 100 µM (inactive) in the test with MOLT-4; > 100 µM (inactive) with RPMI-8226; > 100 µM (inactive) with SK-MEL-2. In addition, the GI50 in the test on 786-0, in the test on UACC-62, with BT-549, with OVCAR-8, in the test on ACHN and in the test on CAKI-1 was > 100 µM (inactive) in each case.
For the molecule `Cc1n2nc(N)sc2n[n+]1Cc1ccccc1`, the GI50 is > 100 µM (inactive) with SNB-75; > 100 µM (inactive) in the test on NCI-H226; > 100 µM (inactive) with SN12C; > 100 µM (inactive) in the test on MDA-N; 77.3 µM (inactive) with U-251; 38.4 µM (inactive) with T47D. The GI50 in the test with PC-3, in the test with HT-29, with OVCAR-5, in the test on NCI-H522, in the test on MOLT-4 and in the test on RPMI-8226 was > 100 µM (inactive) throughout. Also, the GI50 with SK-MEL-2 is > 100 µM (inactive); in the test with 786-0, > 100 µM (inactive); in the test with UACC-62, 47.4 µM (inactive); in the test with BT-549 it was 74.6 µM (inactive); in the test on OVCAR-8 it was > 100 µM (inactive); in the test with ACHN, > 100 µM (inactive). In addition, in the test with CAKI-1, the GI50 is > 100 µM (inactive).
With `CC(C)(C)c1ccc(OCC(=O)O)c(Cl)c1`, the GI50 in the test with SNB-75, with NCI-H226, with SN12C, in the test with MDA-N, with U-251 and with T47D was > 100 µM (inactive) throughout. Moreover, the GI50 in the test with PC-3, in the test on HT-29, in the test with OVCAR-5, with NCI-H522, with MOLT-4 and with RPMI-8226 was > 100 µM (inactive) in each case. Also, the GI50 with SK-MEL-2, with 786-0, in the test with UACC-62, in the test on BT-549, with OVCAR-8 and in the test on ACHN was > 100 µM (inactive) in each case. The GI50 in the test on CAKI-1 was > 100 µM (inactive).
For the molecule `O=c1c2c(oc3ccccc13)-c1ccccc1OC2`, the GI50 in the test with SNB-75 was 16.7 µM (inactive); in the test with NCI-H226 it was > 100 µM (inactive); with SN12C, 53.3 µM (inactive); in the test with MDA-N, > 100 µM (inactive); with U-251, 29 µM (inactive); in the test on T47D, 16.3 µM (inactive). Besides, the GI50 in the test on PC-3, in the test with HT-29, with OVCAR-5, in the test with NCI-H522, with MOLT-4 and in the test on RPMI-8226 was > 100 µM (inactive) throughout. Further, the GI50 is > 100 µM (inactive) in the test on SK-MEL-2; 24.4 µM (inactive) in the test on 786-0; > 100 µM (inactive) in the test on UACC-62; > 100 µM (inactive) in the test with BT-549; 27.9 µM (inactive) with OVCAR-8; 35.7 µM (inactive) in the test with ACHN. The GI50 in the test on CAKI-1 is 26.1 µM (inactive).
Turning to `CC(C)N/C(=N\C#N)NS(=O)(=O)c1cnccc1Nc1ccc(Cl)cc1`, the GI50 in the test on SNB-75, in the test on NCI-H226, in the test on SN12C, in the test on MDA-N, in the test with U-251 and in the test on T47D was > 100 µM (inactive) in each case. The GI50 with PC-3, in the test with HT-29, in the test with OVCAR-5, in the test on NCI-H522, with MOLT-4 and in the test on RPMI-8226 was > 100 µM (inactive) in each case. The GI50 with SK-MEL-2, with 786-0, in the test with UACC-62, with BT-549, in the test with OVCAR-8 and in the test with ACHN was > 100 µM (inactive) each time. The GI50 in the test on CAKI-1 was > 100 µM (inactive).
With `N#Cc1c(N2CCN(c3ccc([N+](=O)[O-])cc3)CC2)[n+]([O-])c2ccc(-c3ccc([N+](=O)[O-])cc3)cc2[n+]1[O-]`, the GI50 in the test with SNB-75 is > 26.9 µM (inactive); in the test on NCI-H226 it was 33 µM (inactive); in the test with MDA-N, 31.8 µM (inactive); with U-251, 1.25 µM (inactive); in the test on T47D, 3.58 µM (inactive); with PC-3, 2.55 µM (inactive). For the same molecule, the GI50 in the test with HT-29 is > 67.6 µM (inactive); in the test on OVCAR-5, 30.7 µM (inactive); in the test with RPMI-8226, 5.02 µM (inactive); in the test with SK-MEL-2, > 37.2 µM (inactive); with 786-0, > 47.8 µM (inactive); in the test on UACC-62, 18 µM (inactive). For the same molecule, the GI50 in the test with BT-549 was > 100 µM (inactive); in the test with OVCAR-8, 1.62 µM (inactive); in the test on ACHN, > 49 µM (inactive); with CAKI-1, 5.35 µM (inactive).
